Experimental data: patent US6262305A, “Process and intermediates for preparing 3-(substituted phenyl)-5-(thienyl or furyl)-1,2,4-triazole compounds” (priority 1999, dated 2001)

Tested on: Cotton Aphid
Experiment: Seed Treatment Test vs. Cotton Aphid on Squash
Type: in vivo, Aphis gossypii
Procedure: Seed Treatment Test vs. Cotton Aphid on Squash
Four-inch pots were filled two-thirds full with sieved soil mix (70 sand/30 pulverized soil). Compound was applied as a suspension to the center in 4 ml volume. Squash seed placed in the applied chemical zone was covered with soil mix 1 cm deep. […] The plants were then infested with aphids. Four days later, aphid counts were made.

| Compound | % Ctrl., cotton aphid on Squash - 1st True Leaf (0.8 mg/pot) [%] | Cotton aphid counts on Squash - 1st True Leaf, Mean (0.8 mg/pot) | % Ctrl., cotton aphid on Squash - cotyledon (0.8 mg/pot) [%] | Cotton aphid counts on Squash - cotyledon, Mean (0.8 mg/pot) | % Ctrl., cotton aphid on Squash - 1st True Leaf (3.2 mg/pot) [%] | Cotton aphid counts on Squash - 1st True Leaf, Mean (3.2 mg/pot) | % Ctrl., cotton aphid on Squash - cotyledon (3.2 mg/pot) [%] | Cotton aphid counts on Squash - cotyledon, Mean (3.2 mg/pot) | % Ctrl., cotton aphid on Squash - 1st True Leaf (12.8 mg/pot) [%] | Cotton aphid counts on Squash - 1st True Leaf, Mean (12.8 mg/pot) | % Ctrl., cotton aphid on Squash - cotyledon (12.8 mg/pot) [%] | Cotton aphid counts on Squash - cotyledon, Mean (12.8 mg/pot) | % Ctrl., cotton aphid on Squash - 1st True Leaf (0.05 mg/pot) [%] | Cotton aphid counts on Squash - 1st True Leaf, Mean (0.05 mg/pot) | % Ctrl., cotton aphid on Squash - cotyledon (0.05 mg/pot) [%] | Cotton aphid counts on Squash - cotyledon, Mean (0.05 mg/pot) | % Ctrl., cotton aphid on Squash - 1st True Leaf (0.2 mg/pot) [%] | Cotton aphid counts on Squash - 1st True Leaf, Mean (0.2 mg/pot) | % Ctrl., cotton aphid on Squash - cotyledon (0.2 mg/pot) [%] | Cotton aphid counts on Squash - cotyledon, Mean (0.2 mg/pot) |
| --- | --- | --- | --- | --- | --- | --- | --- | --- | --- | --- | --- | --- | --- | --- | --- | --- | --- | --- | --- | --- |
| Cn1nc(-c2c(F)cccc2Cl)nc1-c1sc(Cl)c(Cl)c1Cl [Compound 2, 3-(2-chloro-6-fluorophenyl)-5-(3,4,5-trichlorothien-2-yl)-1-methyl[1,2,4]triazole] | 85.8 | 12.0 | 54.4 | 48.0 | 95.9 | 3.5 | 93.1 | 7.3 | 96.1 | 3.3 | 93.3 | 7.0 | – | – | – | – | – | – | – | – |
| Cn1nc(-c2c(Cl)cccc2Cl)nc1-c1sc(Cl)c(Cl)c1Cl [Compound 45, 3-(2,6-dichlorophenyl)-5-(3,4,5-trichlorothien-2-yl)-1-methyl[1,2,4]triazole] | 51.7 | 40.8 | 0 | 165.5 | 77.8 | 18.8 | 52.3 | 50.3 | 90.2 | 8.3 | 24.0 | 80.0 | – | – | – | – | – | – | – | – |
| O=[N+]([O-])NC1=NCCN1Cc1ccc(Cl)nc1 [Imidacloprid, reference compound] | 100.0 | 0.0 | 100 | 0 | – | – | – | – | – | – | – | – | 58.5 | 35.0 | 97.6 | 2.5 | 88.4 | 9.8 | 100 | 0 |
